According to patent US7169567B1, “Screening assay utilizing the PTH receptor” (The General Hospital Corporation, priority 1998, dated 2007):
pEC50: −log10 of the molar value. Where no end group is shown, it is not given here.

Key:
rat secretin receptor = target: T1, rat secretin receptor (Rattus norvegicus, UniProt P23811); assay: cAMP response in COS-7 cells transfected with the rat secretin receptor; type: cell-based; conditions: PTH(1–14) 100 mM
T1 construct: expressed in transfected cells; host or cells: COS-7, transient
T1 sequence (P23811 26-449): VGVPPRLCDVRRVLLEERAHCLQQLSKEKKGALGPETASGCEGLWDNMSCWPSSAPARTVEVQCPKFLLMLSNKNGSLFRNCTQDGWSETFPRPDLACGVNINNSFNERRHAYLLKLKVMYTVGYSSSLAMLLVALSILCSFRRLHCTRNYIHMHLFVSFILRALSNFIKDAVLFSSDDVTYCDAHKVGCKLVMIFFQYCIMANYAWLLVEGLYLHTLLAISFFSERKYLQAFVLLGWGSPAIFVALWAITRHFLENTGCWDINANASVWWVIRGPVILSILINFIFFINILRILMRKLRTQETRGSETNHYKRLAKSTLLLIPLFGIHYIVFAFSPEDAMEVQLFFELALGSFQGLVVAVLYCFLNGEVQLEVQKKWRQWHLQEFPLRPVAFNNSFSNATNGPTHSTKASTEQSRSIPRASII
Method: FIG. 6. Specificity of the Truncated Ligand and PTH Receptor. COS-7 cells transiently transfected with either rWT-HA (A), rΔNt (B), or the intact rat secretin receptor (C), were treated with the indicated peptides for 60 min at 22° C., and the resulting intracellular cAMP levels were quantified by RIA. […] 1 mM and secretin(1–13), 100 mM. Shown are data (mean±s.e.m.) from one experiment performed in duplicate, and this was repeated twice more with equivalent results.
(§1) Intracellular cyclic AMP: Transfected COS-7 or HKRK-B7 cells were rinsed with 500 ml of binding buffer, (50 mM Tris-HCl, pH 7.7, 100 mM NaCl, 5 mM KCl, 2 mM CaC12, 5% heat-inactivated horse serum, 0.5% heat-inactivated fetal bovine serum) and 200 ml of IBMX buffer (DMEM containing 2 mM IBMX, 1 mg/ml bovine serum albumin, 35 mM Hepes-NaOH, pH 7.4) and […] of binding buffer or binding buffer containing various amounts of peptide were added. The plates were incubated for 60 minutes at room temperature. The buffer was then withdrawn and the cells were frozen on dry ice, treated with 0.5 ml of 50 mM HCl, and refrozen. After the thawing, the lysate was diluted 30-fold in dH20 and an aliquot was analyzed for cAMP content by determined radioimmunoassay using unlabeled cAMP as a standard.
In order to test whether PTH(1–14) and rΔNt retained the appropriate recognition specificity for the corresponding parent ligand, cross-reactivity experiments were done using secretin ligands and the cloned rat secretin receptor. […] Cells expressing rΔNt responded to PTH(1–34) and PTH(1–14) but not to secretin(1–27) (1 mM) or secretin(1–13) ([…]) (FIG. 5B). Thus, the recognition specificity of PTH(1–14) and rΔNt appear to replicate that of the intact parent molecules. No evidence for relaxed specificity was detected in these studies (FIG. 6).

human PTH-1 receptor = target: T2, human PTH-1 receptor (Homo sapiens, UniProt Q03431); assay: cAMP-stimulating activity in HKRK-B7 cells (LLC-PK1 stably transfected with human PTH-1 receptor), RIA; type: cell-based; design: maximum cAMP response: dose or concentration left out as unconfirmed; conditions: for increase in intracellular cAMP levels relative to the basal cAMP level: 60 min at 22° C.
T2 construct: expressed in transfected cells; host or cells: HKRK-B7 (LLC-PK1 stably transfected, pCDNA-1-based plasmid)
T2 sequence (Q03431 27-593): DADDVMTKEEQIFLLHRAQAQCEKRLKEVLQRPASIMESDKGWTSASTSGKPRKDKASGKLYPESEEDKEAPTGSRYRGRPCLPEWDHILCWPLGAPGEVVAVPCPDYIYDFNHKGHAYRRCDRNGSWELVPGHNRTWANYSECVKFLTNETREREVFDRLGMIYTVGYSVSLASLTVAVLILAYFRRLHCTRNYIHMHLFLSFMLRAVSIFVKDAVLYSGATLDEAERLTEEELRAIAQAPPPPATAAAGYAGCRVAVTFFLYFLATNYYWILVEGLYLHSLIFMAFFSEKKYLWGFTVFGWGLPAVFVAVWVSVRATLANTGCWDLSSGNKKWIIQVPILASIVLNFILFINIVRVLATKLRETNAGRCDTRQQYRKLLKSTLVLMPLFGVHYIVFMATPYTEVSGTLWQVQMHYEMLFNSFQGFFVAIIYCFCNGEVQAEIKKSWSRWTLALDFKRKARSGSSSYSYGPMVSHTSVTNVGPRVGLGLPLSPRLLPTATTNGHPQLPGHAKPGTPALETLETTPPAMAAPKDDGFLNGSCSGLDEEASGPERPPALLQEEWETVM
Method: FIG. 2. cAMP-stimulating Activity of PTH Fragments in LLC-PK1 Cells. A) Rat PTH(1–34) analog or amino-terminal rPTH fragments were tested for cAMP-stimulating activity in an LLC-P1-derived cell line (HKRK-B7) stably transfected with the human PTH-1 receptor. Cells were treated with peptide at the indicated doses for 60 min at 22° C. Intracellular cAMP was measured by RIA, as described in Experimental Procedures. Shown are combined data (mean±s.e.m.) from 3 separate experiments, each performed in duplicate. B) HKRK-B7 cells, or untransfected LLC-PK1 were treated with rPTH(1–34) or rPTH(1–14), and intracellular cAMP was measured. Shown are data (mean±s.e.m.) from a single representative experiment performed in duplicate.
FIG. 3. Alanine-scan of PTH(1–14). HKRK-B7 cells were treated with 100 mM of one of 14 different rPTH(1–14) analogs, each having a different alanine-substitution at the indicated amino acid position. The resulting cAMP levels were determined as described in Experimental Procedures. Shown are the combined data (mean±s.e.m.) from three separate experiments, each performed in duplicate. The mean (mean±s.e.m.) basal cAMP levels observed in the three experiments was 2.1±0.1 pmole/well, and the maximum response to rPTH(1–34) at 0.1 mM was 254±16 pmole/well.
Cell Culture and DNA Transfection: COS-7 and HKRK-B7 cells were cultured at 37° C. in Dulbecco's modified Eagle's medium (DMEM) supplemented with fetal bovine serum (10%); penicillin G (20 units/ml), streptomycin sulfate (20 μg/ml) and amphotericin B (0.05 μg/ml) in a humidified atmosphere containing 5% CO2. Twenty-four to 16 hours prior to assay, cells in 24-well plates were shifted to a humidified incubator containing 5% CO2 that was set at 33° C. Stock solutions of EGTA/trypsin and antibiotics were from GIBCO; fetal bovine serum was from Hyclone Laboratories (Logan, Utah). Derivation and characterization of the HKRK-B7 cell line by stable transfection of LLC-PK1 cells with a pCDNA-1-based plasmid (In Vitrogen, San Diego, Calif.) encoding the hPTH-1 receptor was described previously (Takasu, H. and Bringhurst, F., Endocrinology, in press (1998)). These cells express PTH-1 receptors at a surface density of about 1×10^6 PTH-binding sites per cell. The HKRK-B7 cells were used for functional assays 24 to 72 hours after the cell monolayer reached confluency.
as §1
Amino-terminal peptide fragments based on the rat PTH sequence and ranging in length from PTH(1–9) to PTH(1–15) were synthesized and tested for activity in an LLC-PK1-derived cell line called HKRK-B7 which stably expresses high levels (1×10^6 receptors/cell) of the cloned human PTH-1 receptor (Takasu, H. and Bringhurst, F., Endocrinology, in press (1998)).

Molecule: CCCC[C@H](NC(=O)[C@H](CCCNC(=N)N)NC(=O)[C@H](CCC(=O)O)NC(=O)[C@@H](NC(=O)[C@H](CO)NC(=O)[C@H](C)NC(=O)[C@H](CC(C)C)NC(=O)[C@H](Cc1c[nH]cn1)NC(=O)[C@H](CCCCN)NC(=O)CNC(=O)[C@H](CC(C)C)NC(=O)[C@H](CC(N)=O)NC(=O)[C@H](Cc1c[nH]cn1)NC(=O)[C@H](CCCC)NC(=O)[C@H](CC(C)C)NC(=O)[C@H](CCC(N)=O)NC(=O)[C@@H](NC(=O)[C@H](CCC(=O)O)NC(=O)[C@H](CO)NC(=O)[C@@H](NC(=O)[C@H](C)N)C(C)C)[C@@H](C)CC)C(C)C)C(=O)N[C@@H](CCC(N)=O)C(=O)N[C@@H](Cc1c[nH]c2ccccc12)C(=O)N[C@@H](CC(C)C)C(=O)N[C@@H](CCCNC(=N)N)C(=O)N[C@@H](CCCCN)C(=O)N[C@@H](CCCCN)C(=O)N[C@@H](CC(C)C)C(=O)N[C@@H](CCC(N)=O)C(=O)N[C@@H](CC(=O)O)C(=O)N[C@H](C(=O)N[C@@H](Cc1c[nH]cn1)C(=O)N[C@@H](CC(N)=O)C(=O)N[C@@H](Cc1ccc(O)cc1)C(N)=O)C(C)C [PTH(1–34), [Nle^8,21,Tyr^34]rPTH-(1–34)NH2]
- cAMP response of secretin receptor cells (in words) (rat secretin receptor): did not respond
- pEC50 (human PTH-1 receptor): ~8.70
- increase in intracellular cAMP levels relative to the basal cAMP level (human PTH-1 receptor; HKRK-B7 cells): 50 fold
- maximum cAMP response (human PTH-1 receptor; HKRK-B7 cells, mean±s.e.m. of three experiments, basal 2.1±0.1 pmole/well): 254±16 pmole/well

Molecule: PTH(1–14): Amino-terminal peptide fragment based on the rat PTH sequence, residues 1–14, C-terminally amidated (AVSEIQLMHNLGKH-NH2)
- cAMP response of secretin receptor cells (in words) (rat secretin receptor): did not respond
- doses required for cAMP activation compared with the dose required for PTH(1–34) (human PTH-1 receptor; HKRK-B7 cells): five to six orders of magnitude higher
- increase in intracellular cAMP levels relative to the basal cAMP level (human PTH-1 receptor; HKRK-B7 cells): about 20 fold
- potency relative to PTH(1–34) with the intact receptor (human PTH-1 receptor; intact receptor): about five orders of magnitude weaker
